Patent US12110286B2, “Benzimidazolone derived inhibitors of BCL6” (Cancer Research Technology Limited, priority 2017, dated 2024)

Target: Trx-6×His-BCL6 (human BCL6 BTB domain covering amino-acid sequence 5-129) (Homo sapiens (Human), UniProt P41182)
Assay: HTRF in vitro assay (BCL6 / BCOR-AF633 peptide)
Type: binding
Conditions: for activity in the HTRF assay: result in words
Description: The % inhibition at each concentration was calculated by normalising FRET ratio to the appropriate high (DMSO with all reagents) and low (DMSO without BCL6) controls.

[1] = further generated data, 1 nM Trx-6×His-BCL6, 300 nM BCOR-AF633 peptide, 0.5 nM anti-6×His-Terbium cryptate
[2] = initially generated data, 10 nM Trx-6×His-BCL6, 300 nM BCOR-AF633 peptide, 1 nM anti-6×His-Terbium cryptate

SMILES	HTRF pIC50 [1]	activity in the HTRF assay	HTRF pIC50 [2]
Cn1c(=O)n(CCC(C)(C)O)c2cc(Nc3c(Cl)cncc3Cl)ccc21 [5-((3,5-dichloropyridin-4-yl)amino)-3-(3-hydroxy-3-methylbutyl)-1-methyl-1,3-dihydro-2H-benzo[d]imidazol-2-one]		did not exhibit the desired activity	
Cn1c(=O)n(CCC(C)(C)O)c2cc(Nc3ccnc(Cl)c3C#N)ccc21 [Example 1i, 2-chloro-4-[[3-(3-hydroxy-3-methyl-butyl)-1-methyl-2-oxo-benzimidazol-5-yl]amino]pyridine-3-carbonitrile]	6.08		5.77
Cn1c(=O)n(CC2CC(C)(C)C2)c2cc(Nc3ccnc(Cl)c3C#N)ccc21 [2-chloro-4-((3-((3,3-dimethylcyclobutyl)methyl)-1-methyl-2-oxo-2,3-dihydro-1H-benzo[d]imidazol-5-yl)amino)nicotinonitrile]		did not exhibit the desired activity	
Cn1c(=O)n(C)c2cc(Nc3ncncc3C#N)ccc21 [4-((1,3-dimethyl-2-oxo-2,3-dihydro-1H-benzo[d]imidazol-5-yl)amino)pyrimidine-5-carbonitrile]		did not exhibit the desired activity	
Cn1c(=O)n(C)c2cc(Nc3ccncc3C(F)(F)F)ccc21 [1,3-dimethyl-5-((3-(trifluoromethyl)pyridin-4-yl)amino)-1,3-dihydro-2H-benzo[d]imidazol-2-one]		did not exhibit the desired activity	
CC(C)Nc1ncc(Cl)c(Nc2ccc3c(c2)n(CCC(C)(C)O)c(=O)n3C)n1 [Example 20f]	5.99		
CSc1ncc(Cl)c(Nc2ccc3c(c2)n(CCC(C)(C)O)c(=O)n3C)n1 [Example 22a, 5-((5-chloro-2-(methylthio)pyrimidin-4-yl)amino)-3-(3-hydroxy-3-methylbutyl)-1-methyl-1,3-dihydro-2H-benzo[d]imidazol-2-one]	6.19		
Cn1c(=O)n(CCC(C)(C)O)c2cc(Nc3nc(-n4cccn4)ncc3Cl)ccc21 [Example 15m]	6.08		
Cn1c(=O)n(CC2CCCNC2)c2cc(Nc3ccnc(Cl)c3C#N)ccc21 (centres unmarked) [2-chloro-4-((1-methyl-2-oxo-3-(piperidin-3-ylmethyl)-2,3-dihydro-1H-benzo[d]imidazol-5-yl)amino)nicotinonitrile]		did not exhibit the desired activity	
CCOC(=O)c1cc(Nc2ccc3c(c2)n(CC(O)CC)c(=O)n3C)n2ncc(F)c2n1 (centres unmarked) [Example 1r, Ethyl 3-fluoro-7-((3-(2-hydroxybutyl)-1-methyl-2-oxo-2,3-dihydro-1H-benzo[d]imidazol-5-yl)amino)pyrazolo[1,5-a]pyrimidine-5-carboxylate]	5.91		5.39
CN1CC(C)(CCn2c(=O)n(C)c3ccc(Nc4ccnc(Cl)c4C#N)cc32)OC1=O (centres unmarked) [Example 33, 2-chloro-4-((3-(2-(3,5-dimethyl-2-oxooxazolidin-5-yl)ethyl)-1-methyl-2-oxo-2,3-dihydro-1H-benzo[d]imidazol-5-yl)amino)nicotinonitrile]	5.43		
CCOC(=O)c1cnn(-c2ncc(Cl)c(Nc3ccc4c(c3)n(CCC(C)(C)O)c(=O)n4C)n2)c1 [Example 15b]	5.96		
Cc1nccc(Nc2ccc3c(c2)n(C)c(=O)n3C)c1C#N [4-((1,3-dimethyl-2-oxo-2,3-dihydro-1H-benzo[d]imidazol-5-yl)amino)-2-methylnicotinonitrile]		did not exhibit the desired activity	
Cn1c(=O)n(CCC(C)(O)CCO)c2cc(Nc3nc(Cl)ncc3Cl)ccc21 (centres unmarked) [5-((2,5-dichloropyrimidin-4-yl)amino)-3-(3,5-dihydroxy-3-methylpentyl)-1-methyl-1,3-dihydro-2H-benzo[d]imidazol-2-one]		did not exhibit the desired activity	
C[C@@H]1CN(c2cc(Nc3ccc4c(c3)n(CCC(C)(C)O)c(=O)n4C)c(Cl)cn2)C[C@H](C)O1 [Example 36b, 5-((5-chloro-2-((2R,6S)-2,6-dimethylmorpholino)pyridin-4-yl)amino)-3-(3-hydroxy-3-methylbutyl)-1-methyl-1,3-dihydro-2H-benzo[d]imidazol-2-one]	5.99		
Cc1cc(Nc2ccc3c(c2)n(CC[C@@H](C)O)c(=O)n3C)c(C#N)c(Cl)n1 [Example 1l, 2-chloro-4-[[3-[(3R)-3-hydroxybutyl]-1-methyl-2-oxo-benzimidazol-5-yl]amino]-6-methyl-pyridine-3-carbonitrile]	5.53		5.62
CNC(=O)c1cc(Nc2ccc3c(c2)n(CCC(C)(C)O)c(=O)n3CC2CCOCC2)c(C#N)c(Cl)n1 [Example 1g, 6-chloro-5-cyano-4-[[3-(3-hydroxy-3-methyl-butyl)-2-oxo-1-(tetrahydropyran-4-ylmethyl)benzimidazol-5-yl]amino]-N-methyl-pyridine-2-carboxamide]	5.95		5.82

The next lines start with the values.

HTRF pIC50 [1]	activity in the HTRF assay	HTRF pIC50 [2]	SMILES
5.93			CCC(C)(O)CCn1c(=O)n(C)c2ccc(Nc3ccnc(Cl)c3C#N)cc21 (centres unmarked) [Example 27c, 2-chloro-4-((3-(3-hydroxy-3-methylpentyl)-1-methyl-2-oxo-2,3-dihydro-1H-benzo[d]imidazol-5-yl)amino)nicotinonitrile]
6.14			COCC(C)(O)CCn1c(=O)n(C)c2ccc(Nc3ccnc(Cl)c3C#N)cc21 (centres unmarked) [Example 27b, 2-chloro-4-((3-(3-hydroxy-4-methoxy-3-methylbutyl)-1-methyl-2-oxo-2,3-dihydro-1H-benzo[d]imidazol-5-yl)amino)nicotinonitrile]
6.81			Cn1c(=O)n(CCC(C)(C)O)c2cc(Nc3nc(N4CCOC(CO)C4)ncc3Cl)ccc21 (centres unmarked) [Example 42j, 5-((5-chloro-2-(2-(hydroxymethyl)morpholino)pyrimidin-4-yl)amino)-3-(3-hydroxy-3-methylbutyl)-1-methyl-1,3-dihydro-2H-benzo[d]imidazol-2-one]
5.69		5.65	CCOC(CCn1c(=O)n(C)c2ccc(Nc3ccnc(Cl)c3C#N)cc21)C(=O)OC (centres unmarked) [Example 10c]
5.38			Cn1c(=O)n(CCC(C)(C)O)c2cc(Nc3ccncc3Br)ccc21 [Example 29c, 5-((3-bromopyridin-4-yl)amino)-3-(3-hydroxy-3-methylbutyl)-1-methyl-1,3-dihydro-2H-benzo[d]imidazol-2-one]
6.85			Cn1c(=O)n(CCC(C)(C)O)c2cc(Nc3nc(N4CCC(n5cccn5)CC4)ncc3Cl)ccc21 [Example 42i, 5-((2-(4-(1H-pyrazol-1-yl)piperidin-1-yl)-5-chloropyrimidin-4-yl)amino)-3-(3-hydroxy-3-methylbutyl)-1-methyl-1,3-dihydro-2H-benzo[d]imidazol-2-one]
6.42			CCC1(Cn2c(=O)n(C)c3ccc(Nc4nc(N5C[C@@H](C)O[C@@H](C)C5)ncc4Cl)cc32)CNC(=O)O1 (some centres unmarked) [Example 20n]
5.62			Cn1c(=O)n(CCC(C)(C)O)c2cc(Nc3nc(-c4cccs4)ncc3Cl)ccc21 [Example 23d]
6.31			Cc1ccnn1-c1ncc(Cl)c(Nc2ccc3c(c2)n(CCC(C)(C)O)c(=O)n3C)n1 [Example 16b, 5-((5-chloro-2-(5-methyl-1H-pyrazol-1-yl)pyrimidin-4-yl)amino)-3-(3-hydroxy-3-methylbutyl)-1-methyl-1,3-dihydro-2H-benzo[d]imidazol-2-one]
		5.50	CN(C)CCNC(=O)c1cc(Nc2ccc3c(c2)n(C)c(=O)n3C)c(C#N)c(Cl)n1 [Example 7d, 6-Chloro-5-cyano-N-[2-(dimethylamino)ethyl]-4-[(1,3-dimethyl-2-oxo-benzimidazol-5-yl)amino]pyridine-2-carboxamide:formic acid (1:1)]
6.53			C[C@@H]1CN(c2ncc(Cl)c(Nc3ccc4c(c3)n(CCC(C)(C)O)c(=O)n4CCN(C)C)n2)C[C@H](C)C1(F)F [Example 37a, 5-((5-chloro-2-((3S,5R)-4,4-difluoro-3,5-dimethylpiperidin-1-yl)pyrimidin-4-yl)amino)-1-(2-(dimethylamino)ethyl)-3-(3-hydroxy-3-methylbutyl)-1,3-dihydro-2H-benzo[d]imidazol-2-one]
6.21			Cn1c(=O)n(CCC(C)(C)O)c2cc(Nc3ccnc(F)c3Cl)ccc21 [Example 29a, 5-((3-chloro-2-fluoropyridin-4-yl)amino)-3-(3-hydroxy-3-methylbutyl)-1-methyl-1,3-dihydro-2H-benzo[d]imidazol-2-one]
5.90			Cn1c(=O)n(CCC2(O)CCC2)c2cc(Nc3ccnc(Cl)c3C#N)ccc21 [Example 18a, 2-chloro-4-((3-(2-(1-hydroxycyclobutyl)ethyl)-1-methyl-2-oxo-2,3-dihydro-1H-benzo[d]imidazol-5-yl)amino)nicotinonitrile]
6.46			Cn1c(=O)n(CCC(C)(C)O)c2cc(Nc3nc(N4CCCC(C#N)C4)ncc3Cl)ccc21 (centres unmarked) [Example 42b, 1-(5-chloro-4-((3-(3-hydroxy-3-methylbutyl)-1-methyl-2-oxo-2,3-dihydro-1H-benzo[d]imidazol-5-yl)amino)pyrimidin-2-yl)piperidine-3-carbonitrile]
5.52			CC[C@]1(O)CCC[C@H]1Cn1c(=O)n(C)c2ccc(Nc3ccnc(Cl)c3C#N)cc21 [Example 22m]
6.68			Cn1cc2c(n1)CN(c1ncc(Cl)c(Nc3ccc4c(c3)n(CCC(C)(C)O)c(=O)n4C)n1)CC2 [Example 42e, 5-((5-chloro-2-(2-methyl-2,4,5,7-tetrahydro-6H-pyrazolo[3,4-c]pyridin-6-yl)pyrimidin-4-yl)amino)-3-(3-hydroxy-3-methylbutyl)-1-methyl-1,3-dihydro-2H-benzo[d]imidazol-2-one]
